Measured values as given in PubChem BioAssay (NCI).
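Values below derive from 48-hour exposures of cells grown in 96-well plates, with endpoints linearly interpolated between the two concentrations bracketing the appropriate inhibition level. TGI marks complete inhibition of growth.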

Legend:
Test in all cases: NCI-60 cell line screen, 48 h
MCF7 breast = test system: MCF7 breast
OVCAR-3 ovarian = test system: OVCAR-3 ovarian
CCRF-CEM leukemia = test system: CCRF-CEM leukemia
PC-3 prostate = test system: PC-3 prostate
U251 CNS = test system: U251 CNS
LOX IMVI melanoma = test system: LOX IMVI melanoma
NCI/ADR-RES ovarian = test system: NCI/ADR-RES ovarian
NCI-H460 lung = test system: NCI-H460 lung
SW-620 colon = test system: SW-620 colon
HS 578T breast = test system: HS 578T breast
SK-MEL-28 melanoma = test system: SK-MEL-28 melanoma
M14 melanoma = test system: M14 melanoma
OVCAR-5 ovarian = test system: OVCAR-5 ovarian
HT29 colon = test system: HT29 colon
SR leukemia = test system: SR leukemia
DU-145 prostate = test system: DU-145 prostate
RPMI-8226 leukemia = test system: RPMI-8226 leukemia
MDA-N = test system: MDA-N
SF-295 CNS = test system: SF-295 CNS
UACC-62 melanoma = test system: UACC-62 melanoma
SK-OV-3 ovarian = test system: SK-OV-3 ovarian
HCT-15 colon = test system: HCT-15 colon
MDA-MB-231 breast = test system: MDA-MB-231 breast
NCI-H226 lung = test system: NCI-H226 lung
HL-60(TB) leukemia = test system: HL-60(TB) leukemia
COLO 205 colon = test system: COLO 205 colon
SN12C renal = test system: SN12C renal
SNB-19 CNS = test system: SNB-19 CNS
NCI-H23 lung = test system: NCI-H23 lung
SF-268 CNS = test system: SF-268 CNS
ACHN renal = test system: ACHN renal
RXF 393 renal = test system: RXF 393 renal
786-0 renal = test system: 786-0 renal
CAKI-1 renal = test system: CAKI-1 renal
SF-539 CNS = test system: SF-539 CNS
K-562 leukemia = test system: K-562 leukemia
A498 renal = test system: A498 renal
BT-549 breast = test system: BT-549 breast
SK-MEL-5 melanoma = test system: SK-MEL-5 melanoma
MDA-MB-435 = test system: MDA-MB-435
SK-MEL-2 melanoma = test system: SK-MEL-2 melanoma
IGROV1 ovarian = test system: IGROV1 ovarian
TK-10 renal = test system: TK-10 renal
HCT-116 colon = test system: HCT-116 colon
HOP-62 NSCLC = test system: HOP-62 NSCLC
EKVX NSCLC = test system: EKVX NSCLC
MOLT-4 leukemia = test system: MOLT-4 leukemia
UACC-257 melanoma = test system: UACC-257 melanoma
OVCAR-8 ovarian = test system: OVCAR-8 ovarian
KM12 colon = test system: KM12 colon
MALME-3M melanoma = test system: MALME-3M melanoma
SNB-75 CNS = test system: SNB-75 CNS
HCC-2998 colon = test system: HCC-2998 colon
NCI-H522 lung = test system: NCI-H522 lung
T-47D breast = test system: T-47D breast
OVCAR-4 ovarian = test system: OVCAR-4 ovarian
UO-31 renal = test system: UO-31 renal
A549 NSCLC = test system: A549 NSCLC

Cn1c(=O)sc2cc(C(=S)N3CCC(Cc4ccccc4)CC3)ccc21
TGI (MCF7 breast): > 100 µM
TGI (OVCAR-3 ovarian): > 100 µM
TGI (CCRF-CEM leukemia): > 100 µM
TGI (PC-3 prostate): > 100 µM
TGI (U251 CNS): 78.1 µM
TGI (LOX IMVI melanoma): > 100 µM
TGI (NCI/ADR-RES ovarian): > 100 µM
TGI (NCI-H460 lung): > 100 µM
TGI (SW-620 colon): > 100 µM
TGI (HS 578T breast): > 100 µM
TGI (SK-MEL-28 melanoma): > 100 µM
TGI (M14 melanoma): > 100 µM
TGI (OVCAR-5 ovarian): > 100 µM
TGI (HT29 colon): > 100 µM
TGI (SR leukemia): > 100 µM
TGI (DU-145 prostate): > 100 µM
TGI (RPMI-8226 leukemia): > 100 µM
TGI (MDA-N): > 100 µM
TGI (SF-295 CNS): > 100 µM
TGI (UACC-62 melanoma): > 100 µM
TGI (SK-OV-3 ovarian): > 100 µM
TGI (HCT-15 colon): > 100 µM
TGI (MDA-MB-231 breast): > 100 µM
TGI (NCI-H226 lung): > 100 µM
TGI (HL-60(TB) leukemia): > 100 µM
TGI (COLO 205 colon): > 100 µM
TGI (SN12C renal): > 100 µM
TGI (SNB-19 CNS): > 100 µM
TGI (NCI-H23 lung): > 100 µM
TGI (SF-268 CNS): > 100 µM
TGI (ACHN renal): > 100 µM
TGI (RXF 393 renal): > 100 µM
TGI (786-0 renal): > 100 µM
TGI (CAKI-1 renal): > 100 µM
TGI (SF-539 CNS): > 100 µM
TGI (K-562 leukemia): > 100 µM
TGI (A498 renal): > 100 µM
TGI (BT-549 breast): > 100 µM
TGI (SK-MEL-5 melanoma): > 100 µM
TGI (MDA-MB-435): > 100 µM
TGI (SK-MEL-2 melanoma): > 100 µM
TGI (IGROV1 ovarian): > 100 µM
TGI (TK-10 renal): > 100 µM
TGI (HCT-116 colon): > 100 µM
TGI (HOP-62 NSCLC): > 100 µM
TGI (EKVX NSCLC): > 100 µM
TGI (MOLT-4 leukemia): > 100 µM
TGI (UACC-257 melanoma): > 100 µM
TGI (OVCAR-8 ovarian): > 100 µM
TGI (KM12 colon): > 100 µM

Cc1ccc(S(=O)c2sccc2C=O)cc1 (stereo unspecified)
TGI (MCF7 breast): 43.8 µM
TGI (CCRF-CEM leukemia): 56 µM
TGI (MALME-3M melanoma): > 100 µM
TGI (PC-3 prostate): > 100 µM
TGI (U251 CNS): 34.6 µM
TGI (LOX IMVI melanoma): 32.4 µM
TGI (NCI/ADR-RES ovarian): 67.2 µM
TGI (NCI-H460 lung): 50.4 µM
TGI (SW-620 colon): 55.9 µM
TGI (HS 578T breast): 65.9 µM
TGI (SK-MEL-28 melanoma): 92.4 µM
TGI (SNB-75 CNS): 94.9 µM
TGI (M14 melanoma): 58.1 µM
TGI (OVCAR-5 ovarian): > 100 µM
TGI (HT29 colon): 45 µM
TGI (HCC-2998 colon): > 100 µM
TGI (NCI-H522 lung): > 100 µM
TGI (SR leukemia): 84.2 µM
TGI (T-47D breast): > 100 µM
TGI (DU-145 prostate): > 100 µM
TGI (RPMI-8226 leukemia): 76.2 µM
TGI (MDA-N): > 100 µM
TGI (SF-295 CNS): 71.3 µM
TGI (UACC-62 melanoma): 55.3 µM
TGI (SK-OV-3 ovarian): > 100 µM
TGI (HCT-15 colon): 85.8 µM
TGI (MDA-MB-231 breast): > 100 µM
TGI (OVCAR-4 ovarian): 75 µM
TGI (HL-60(TB) leukemia): 48.2 µM
TGI (UO-31 renal): > 100 µM
TGI (COLO 205 colon): > 100 µM
TGI (SN12C renal): 63.5 µM
TGI (SNB-19 CNS): > 100 µM
TGI (NCI-H23 lung): > 100 µM
TGI (SF-268 CNS): 82.4 µM
TGI (ACHN renal): > 100 µM
TGI (RXF 393 renal): > 100 µM
TGI (786-0 renal): > 100 µM
TGI (CAKI-1 renal): > 100 µM
TGI (SF-539 CNS): 41.7 µM
TGI (K-562 leukemia): > 100 µM
TGI (A498 renal): > 100 µM
TGI (BT-549 breast): 60.3 µM
TGI (SK-MEL-5 melanoma): > 100 µM
TGI (MDA-MB-435): 62.6 µM
TGI (SK-MEL-2 melanoma): > 100 µM
TGI (IGROV1 ovarian): 74.3 µM
TGI (TK-10 renal): > 100 µM
TGI (HCT-116 colon): 31 µM
TGI (HOP-62 NSCLC): 68.1 µM
TGI (EKVX NSCLC): > 100 µM
TGI (MOLT-4 leukemia): 59.1 µM
TGI (UACC-257 melanoma): > 100 µM
TGI (OVCAR-8 ovarian): 56.5 µM
TGI (A549 NSCLC): > 100 µM
TGI (KM12 colon): 70.3 µM
